Calls of active or inactive are those of the source. The rule behind the calls is not given here.
Key:
[1] = molecular target: T1, Mitogen-activated protein kinase; ERK1/ERK2 (Homo sapiens) (UniProt P27361+P28482); test: Inhibition of ERK1/2 in human UPF7U cells assessed as reduction in ERK1/2 phosphorylation at 0.125 to 1 uM measured after 24 hrs by western blot assay; type: cell-based; conditions: dose 0.125-1 µM
[2] = molecular target: T1, Mitogen-activated protein kinase; ERK1/ERK2 (Homo sapiens); test: Inhibition of ERK1/2 in human Ramos cells assessed as reduction in ERK1/2 phosphorylation at 0.125 to 1 uM measured after 24 hrs by western blot assay; type: cell-based; conditions: dose 0.125-1 µM

T1 sequence (P27361 whole entry, looked up): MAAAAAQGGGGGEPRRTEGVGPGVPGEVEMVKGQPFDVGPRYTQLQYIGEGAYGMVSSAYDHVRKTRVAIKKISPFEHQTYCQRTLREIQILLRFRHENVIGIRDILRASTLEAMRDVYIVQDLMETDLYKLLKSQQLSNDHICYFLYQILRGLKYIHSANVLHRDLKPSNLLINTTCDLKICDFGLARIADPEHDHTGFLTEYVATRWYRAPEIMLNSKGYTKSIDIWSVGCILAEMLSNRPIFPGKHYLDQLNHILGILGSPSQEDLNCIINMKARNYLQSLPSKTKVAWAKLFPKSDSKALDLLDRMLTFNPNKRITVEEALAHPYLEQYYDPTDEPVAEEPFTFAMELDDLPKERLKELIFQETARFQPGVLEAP
T1 sequence (P28482 whole entry, looked up): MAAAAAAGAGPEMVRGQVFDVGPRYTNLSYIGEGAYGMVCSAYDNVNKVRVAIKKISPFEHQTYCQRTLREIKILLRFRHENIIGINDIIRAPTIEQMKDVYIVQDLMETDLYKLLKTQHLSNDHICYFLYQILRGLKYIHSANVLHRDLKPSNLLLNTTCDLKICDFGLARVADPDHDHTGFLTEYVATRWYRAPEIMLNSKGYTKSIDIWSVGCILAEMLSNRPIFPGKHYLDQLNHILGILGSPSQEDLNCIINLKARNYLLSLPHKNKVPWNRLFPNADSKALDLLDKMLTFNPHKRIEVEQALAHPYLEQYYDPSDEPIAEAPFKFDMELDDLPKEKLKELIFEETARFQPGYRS

inhibition [1]: Active
inhibition [2]: Active
SMILES: c1cn2cc(-c3ccc4cn[nH]c4c3)nc(Nc3ccc(N4CCOCC4)cc3)c2n1
